Reference: patent US8163718B2, “Nucleoside analogues containing phosphonate or phosphonamide groups” (Gilead Sciences, Inc., priority 2008, dated 2012)

Legend:
Test in all cases: Cytostatic cell culture assay (GI50), SRB
Format in all cases: cell-based
Hs-578 = conditions: Hs578, 120 h; 5 days incubation
Source text: (§1) The assay is based on quantification of cell counts by a colorimetric detection of the cell associated proteins. The assay relies on the ability of sulforhodamine B (SRB) to bind to protein components of cells that have been fixed to tissue-culture plates by trichloroacetic acid (TCA). SRB is a bright-pink aminoxanthene dye with two sulfonic groups that bind to basic amino-acid residues under mild acidic conditions, and dissociate under basic conditions. As the binding of SRB is stoichiometric, the amount of dye extracted from stained cells is directly proportional to the cell mass.
(§2) Cell lines: All cell lines were obtained from ATCC (Manassas, Va.). Cultivation media containing Glutamax, and trypsin were purchased from Invitrogen (Carlsbad, Calif.). Doxorubicin, Clofarabine, TCA and SRB were from Sigma-Aldrich (St. Louis, Mo.). Gemcitabine was obtained from Moravek Biochemicals (Brea, Calif.)
(§3) • 1. Trypsinize the sub-confluent cells, count them, and adjust the cell concentrations according to the cell counts listed in Table 1. • 2. Distribute the cells into the 96-well plates in 150 μL of media. Incubate the plates overnight in humidified CO2 incubator at 37° C. • 3. Fix one plate of each cell line with TCA. Discard the cultivation media from the plates by flicking them gently and add 100 ul cold 10% (vol/vol) TCA to each well. Incubate the plates at 4 degree refrigerator for 1 hour. Discard TCA from the plates by flicking them gently. Rinse plates four times in a washing basin containing tap water. Store the plates at room temperature. These plates represent cell counts on day zero. • 4. Prepare a set of medium solutions containing various concentrations of tested compounds by making 5-fold serial dilutions in 96-well plate. Add 50 μL of the diluted compounds per well. Include controls with untreated cells and cells treated with doxorubicin, clofarabine and gemcitabine. • 5. Incubate the plates for 5 days at 37° C. • 6. Fix the plates with TCA. Discard the cultivation media from the plates by flicking them gently and add 100 ul cold 10% (vol/vol) TCA to each well. Incubate the plates at 4 degree refrigerator for 1 hour. Discard TCA from the plates by flicking them gently. Rinse plates four times in a washing basin containing tap water. • 7. Remove excess water by tapping the plates face down, gently on a paper towel. Allow the plates to air-dry at room temperature. • 8. Add 100 ul of 0.057% SRB solution in 1% (vol/vol) acetic acid to each well of the plates fixed with TCA on day zero and five. Leave at room temperature for 30 minutes. • 9. Flick the plates gently to discard SRB. Rinse the plates four times with 1% (vol/vol) Acetic Acid. • 10. Store the plates at 37 degree incubator to facilitate faster drying. • 11. Once the plates are completely dry, add 200 ul of 10 mM Tris base solution (pH 10.5) to each well. Leave at room temperature for 30 minutes for SRB to solubilize. • 12. Measure the OD at 500 nm in a microplate reader • 13. Calculate the percentage of cell-growth inhibition using the next formula: % of control cell growth=100×(ODsample−mean ODday0)/(ODneg control−mean ODday0)
(§4) For GI50 determination, plot a dose-response curve between the compound concentration and percent of growth inhibition. GI50 values can be derived by fitting dose-response curves using sigmoidal dose response equation.

Du-145 = conditions: Homo sapiens, DU-145, 120 h; 5 days incubation
Source text: as §1, §2, §3, §4

HCT-15 = conditions: Homo sapiens, HCT-15, 120 h; 5 days incubation
Source text: as §1, §2, §3, §4

PC3 = conditions: Homo sapiens, PC-3, 120 h; 5 days incubation
Source text: as §1, §2, §3, §4

A549 = conditions: Homo sapiens, A549, 120 h; 5 days incubation
Source text: as §1, §2, §3, §4

BT-549 = conditions: Homo sapiens, BT-549, 120 h; 5 days incubation
Source text: as §1, §2, §3, §4

NCI-H23 = conditions: Homo sapiens, NCI-H23, 120 h; 5 days incubation
Source text: as §1, §2, §3, §4

HCT-116 = conditions: Homo sapiens, HCT-116, 120 h; 5 days incubation
Source text: as §1, §2, §3, §4

CCOC(=O)[C@H](C)NP(=O)(COCCn1cnc2c(OC3CCCC3)nc(N)nc21)N[C@@H](C)C(=O)OCC [Example 46]
GI50 (Hs-578): 0.096 µM
GI50 (Du-145): 0.017 µM
GI50 (HCT-15): 6.3 µM
GI50 (PC3): 0.085 µM
GI50 (A549): 0.474 µM
GI50 (BT-549): 0.286 µM
GI50 (NCI-H23): 0.023 µM
GI50 (HCT-116): 0.269 µM

CCCOc1nc(N)nc2c1ncn2CCOCP(=O)(O)O [Example 1, [2-(2-Amino-6-propoxy-purin-9-yl)-ethoxymethyl]-phosphonic acid]
GI50 (Hs-578): 3.81 µM
GI50 (Du-145): 0.076 µM
GI50 (HCT-15): 0.886 µM
GI50 (PC3): 1.1 µM
GI50 (A549): 1.24 µM
GI50 (BT-549): 0.9 µM
GI50 (NCI-H23): 0.287 µM
GI50 (HCT-116): 1.1 µM

CCCCOc1nc(N)nc2c1ncn2CCOCP(=O)(O)O [Example 4, [2-(2-Amino-6-butoxy-purin-9-yl)-ethoxymethyl]-phosphonic acid]
GI50 (Hs-578): 3.32 µM
GI50 (Du-145): 0.235 µM
GI50 (HCT-15): 2.98 µM
GI50 (PC3): 1.44 µM
GI50 (A549): 4.54 µM
GI50 (BT-549): 3.76 µM
GI50 (NCI-H23): 0.633 µM
GI50 (HCT-116): 3.13 µM

CCCCOc1nc(N)nc2c1ncn2CCOCP(=O)(N[C@@H](C)C(=O)OCC)N[C@@H](C)C(=O)OCC [Example 35]
GI50 (Hs-578): 0.046 µM
GI50 (Du-145): 0.005 µM
GI50 (HCT-15): 8.9 µM
GI50 (PC3): 0.028 µM
GI50 (A549): 0.187 µM
GI50 (BT-549): 0.145 µM
GI50 (NCI-H23): 0.014 µM
GI50 (HCT-116): 0.14 µM

CCCOc1nc(N)nc2c1ncn2CCOCP(=O)(N[C@@H](Cc1ccccc1)C(=O)OCC)N[C@@H](Cc1ccccc1)C(=O)OCC [Example 15]
GI50 (Hs-578): 0.112 µM
GI50 (Du-145): 0.003 µM
GI50 (HCT-15): 1.28 µM
GI50 (PC3): 0.026 µM
GI50 (A549): 0.081 µM
GI50 (BT-549): 0.102 µM
GI50 (NCI-H23): 0.007 µM
GI50 (HCT-116): 0.018 µM

CCCCOC(=O)[C@H](C)NP(=O)(COCCn1cnc2c(OCC)nc(N)nc21)N[C@@H](C)C(=O)OCCCC [Example 38]
GI50 (Hs-578): 0.02 µM
GI50 (Du-145): 0.001 µM
GI50 (HCT-15): 0.799 µM
GI50 (PC3): 0.002 µM
GI50 (A549): 0.017 µM
GI50 (BT-549): 0.053 µM
GI50 (NCI-H23): 0.002 µM
GI50 (HCT-116): 0.012 µM

CCCOc1nc(N)nc2c1ncn2CCOCP(=O)(Oc1ccc(C#N)cc1)N1CCC[C@H]1C(=O)OCC (some centres unmarked) [Example 63]
GI50 (Hs-578): 0.007 µM
GI50 (Du-145): 0.001 µM
GI50 (HCT-15): 3.35 µM
GI50 (PC3): 0.002 µM
GI50 (A549): 0.014 µM
GI50 (BT-549): 0.282 µM
GI50 (NCI-H23): 0.001 µM
GI50 (HCT-116): 0.184 µM

Nc1nc(OC2CCCCC2)c2ncn(CCOCP(=O)(O)O)c2n1 [Example 6, [2-(2-Amino-6-cyclohexyloxy-purin-9-yl)-ethoxymethyl]-phosphonic acid]
GI50 (Hs-578): 11 µM
GI50 (Du-145): 0.439 µM
GI50 (HCT-15): 13 µM
GI50 (PC3): 3.01 µM
GI50 (A549): > 10 µM
GI50 (BT-549): 17 µM
GI50 (NCI-H23): 6 µM
GI50 (HCT-116): > 10 µM

CCCOc1nc(N)nc2c1ncn2CCOCP(=O)(OCOC(=O)OC(C)C)OCOC(=O)OC(C)C [Example 59]
GI50 (Hs-578): 0.061 µM
GI50 (Du-145): 0.002 µM
GI50 (HCT-15): 0.534 µM
GI50 (PC3): 0.04 µM
GI50 (A549): 0.168 µM
GI50 (BT-549): 0.045 µM
GI50 (NCI-H23): 0.01 µM
GI50 (HCT-116): 0.118 µM

Nc1nc(OC2CC2)c2ncn(CCOCP(=O)(O)O)c2n1 [Example 8, [2-(2-Amino-6-cyclopropoxy-purin-9-yl)-ethoxymethyl]-phosphonic acid]
GI50 (Hs-578): 3.34 µM
GI50 (Du-145): 0.536 µM
GI50 (HCT-15): 4.14 µM
GI50 (PC3): 2.83 µM
GI50 (A549): 2.82 µM
GI50 (BT-549): 2.71 µM
GI50 (NCI-H23): 0.675 µM
GI50 (HCT-116): 5.4 µM
